The values below come from PubChem BioAssay (NCI).

“And” between values parts separate entries of the source, which are not always exact repeats. Identical values can stand only once.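 Step 1: Grow cells in 96-well plates. Step 2: Expose to compound for 48 hours at 5 concentrations. Step 3: Interpolate endpoints linearly; if unreached, use highest concentration. GI50 = concentration required for 50% inhibition of growth. TGI is the concentration that stops growth completely.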

Common to all, as to assay: growth of human tumour cells (NCI), 48 h
In assay [1] the test system is HL-60(TB) leukemia.
The subject of assay [2] is SN12C renal.
Assay [3] concerns ACHN renal.
Assay [4] deals with IGROV1 ovarian.
For assay [5], the system named is UACC-257 melanoma.
Assay [6] deals with RPMI-8226 leukemia.
In assay [7] the test system is UACC-62 melanoma.
For assay [8], the system named is M14 melanoma.
Assay [9] has as its system UO-31 renal.
For assay [10], the system named is T-47D breast.

In the case of `CCCCCCC1N=C(N)N=C(N)N1c1cccc(Cl)c1` (stereo not given), the GI50 in assay [1] is 1.14 µM; in assay [2], 0.559 µM; in [3] it was 9.28 µM; in assay [4], 0.199 µM; in assay [5] it was 6.37 µM; in assay [6], 0.904 µM. Moreover, the GI50 is 0.527 µM in [7], 0.668 µM in assay [8], 31.5 µM in assay [9] and 6.19 µM in [10]. Also, the TGI in assay [1] is 10.7 µM; in [2] it was 13.1 µM; in [3], greater than 100 µM; in [4], 5.88 µM; in [5], 29.5 µM; in [6] it was 22 µM. In addition, the TGI in assay [7] amounted to 12.3 µM; in assay [8], 15.5 µM; in [9] it was 97.5 µM; in [10], 23.1 µM.

As to `O=[N+]([O-])c1ccc(/C=C/c2nc3ccc(Cl)cc3[nH]2)cc1`, the GI50 is greater than 100 µM in [1]; 24 µM in assay [2]; 17.8 µM in assay [3]; 35.7 µM in [4]; greater than 100 µM in [5]; 31.4 µM in [6]. Further, the GI50 in assay [7] was greater than 100 µM; in assay [8], greater than 100 µM; in assay [9], 30 µM; in assay [10], 28.8 µM. Further, the TGI in assay [1] was greater than 100 µM; in [2], 91 µM; in assay [3] it was 50.9 µM; in [4], greater than 100 µM; in [5], greater than 100 µM; in [6], greater than 100 µM. The TGI in [7], in [8], in [9] and in assay [10] was greater than 100 µM each time.

With `O=C(Cn1c(C(=O)c2ccc(Cl)cc2)nc(-c2ccc(Cl)cc2)c1-c1ccc(Cl)cc1)c1ccccc1`, the GI50 in assay [1], in [2], in assay [3], in assay [4], in [5] and in assay [6] was greater than 100 µM throughout. The GI50 in assay [7], in assay [8], in assay [9] and in [10] was greater than 100 µM throughout. In addition, the TGI in assay [1], in assay [2], in assay [3], in assay [4], in assay [5] and in assay [6] was greater than 100 µM in each case. Further, the TGI in [7], in assay [8], in [9] and in [10] was greater than 100 µM in each case.

`N#Cc1c(NCc2ccccc2)nc(NCc2ccccc2)c(C#N)c1-c1ccc(Cl)cc1`: the GI50 is greater than 50 µM in assay [1]; > 50 µM and 36.2 µM in assay [2]; > 50 µM and 43.4 µM in [3]; > 50 µM and 37.1 µM in assay [4]; greater than 100 µM in assay [5]; > 50 µM and 50.3 µM in assay [6]. In addition, the GI50 in [7] is > 50 µM and 37.8 µM; in [8] it was > 50 µM and 53.5 µM; in assay [9], greater than 100 µM; in assay [10], greater than 100 µM. For the same molecule, the TGI in assay [1] is greater than 50 µM; in assay [2] it was greater than 100 µM; in assay [3], greater than 100 µM; in assay [4], greater than 100 µM; in assay [5], greater than 100 µM; in assay [6] it was greater than 100 µM. The TGI in [7], in [8], in assay [9] and in assay [10] was greater than 100 µM in each case.

With `CCN1CCC(CC(=O)Nc2n[nH]c3nnc(-c4cccc(F)c4F)cc23)CC1`, the GI50 in [1], in assay [2], in assay [3], in assay [4], in assay [5] and in assay [6] was greater than 25 µM in each case. The GI50 in [7], in assay [8], in [9] and in [10] was greater than 25 µM each time. Moreover, the TGI in assay [1], in [2], in [3], in assay [4], in assay [5] and in assay [6] was greater than 25 µM in each case. For the same molecule, the TGI in [7], in assay [8], in [9] and in assay [10] was greater than 25 µM each time.

For the molecule `N#CC(C#N)=NNc1ccc2cn[nH]c2c1`, the TGI in [1] was 45.3 µM; in assay [2], 92.3 µM; in assay [3], greater than 100 µM; in assay [4], greater than 100 µM; in assay [5], 60.2 µM; in assay [6] it was 65.4 µM. In addition, the TGI was greater than 100 µM in [7], greater than 100 µM in assay [8], 28.1 µM in assay [9] and greater than 100 µM in assay [10].

`Cn1cc(C2=C(c3c4n(c5ccccc35)CCNC4)C(=O)NC2=O)c2ccccc21`: the GI50 is 3.92 µM in assay [1]; 11.9 µM in assay [2]; 7.93 µM in assay [3]; greater than 10 µM in assay [4]; greater than 11.4 µM in [5]; 10.1 µM in [6]. The GI50 in assay [7] is 7.63 µM; in [8] it was 12.4 µM; in assay [9], 4.53 µM; in assay [10], greater than 21.2 µM. Also, the TGI is greater than 25 µM in assay [1]; greater than 25 µM in assay [2]; greater than 25 µM in assay [3]; greater than 21.5 µM in assay [4]; greater than 20.2 µM in assay [5]; greater than 22.3 µM in assay [6]. Further, the TGI in assay [7] was greater than 25 µM; in [8], greater than 25 µM; in assay [9] it was greater than 22.2 µM; in assay [10] it was greater than 25 µM.
